Common to all, as to assay: growth of human tumour cells (NCI), 48 h
Assay [1] concerns A498 renal.
Assay [2] relates to SK-MEL-28 melanoma.
Assay [3] has as its system SK-MEL-2 melanoma.
Assay [4] has as its system OVCAR-8 ovarian.
The test system of assay [5] is EKVX NSCLC.
Assay [6] relates to SF-539 CNS.
Assay [7] relates to MALME-3M melanoma.
Assay [8] relates to SNB-75 CNS.
Assay [9] deals with SK-MEL-5 melanoma.

Values joined by “and” are separate entries in the source; they are usually repeats but may differ in a detail not shown here. Equal values may be shown once.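 In this assay, cells in 96-well plates receive the compound at five concentrations for 48 hours. Endpoints are linearly interpolated between the surrounding concentrations. Abbreviation: GI50, concentration required for 50% inhibition of growth. The concentration for full growth arrest is given as TGI.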

`CC(=O)[CH-]C(=O)c1ccccc1.CC(=O)[CH-]C(=O)c1ccccc1.O=S(=O)([O-])c1cc([O-])c2c([O-])cc(S(=O)(=O)[O-])cc2c1.[Na+].[Ti+4]`: the GI50 in [1] is > 100 µM; in [2], > 100 µM; in assay [3], > 100 µM; in [4], > 100 µM; in [5], > 100 µM; in assay [6], 83.3 µM. The GI50 was 84.5 µM in assay [7], 29.1 µM in assay [8] and > 100 µM in assay [9]. Further, the TGI in assay [1], in [2], in [3], in assay [4], in assay [5] and in assay [6] was > 100 µM each time. For the same compound, the TGI is > 100 µM in assay [7], 87.5 µM in assay [8] and > 100 µM in [9].
With `CCc1cccc(C)c1NC(=O)CC1C(=O)Nc2ccccc2S1=O` (stereo not given), the TGI is > 100 µM in [2]; > 100 µM in assay [3]; > 100 µM in [4]; 79.2 µM in [6]; > 100 µM in assay [7]; > 100 µM in [8].
Take `N#Cc1c(-c2ccco2)cc(-c2ccc(N)cc2)[nH]c1=O`: the TGI in assay [1], in assay [2], in assay [4], in assay [5], in assay [6] and in assay [7] was > 100 µM in each case. The TGI in assay [8] and in assay [9] was > 100 µM each time.
With `O=C1C2[C@@H](C(=O)N1c1ccc(Br)cc1)C13C(=CC2([N+](=O)[O-])[C@@H]2C(=O)N(c4ccc(Br)cc4)C(=O)[C@@H]21)c1ccccc1N3c1ccccc1` (stereo not given in full), the TGI in assay [2], in [3], in [4], in assay [5], in [6] and in [7] was > 100 µM in each case. Further, the TGI in [8] was > 100 µM.
With `NC(=S)N/N=C1\CCCC\C1=C/c1ccccc1`, the TGI in assay [1], in assay [2], in [3], in assay [4], in [5] and in assay [6] was > 100 µM in each case. For the same compound, the TGI in assay [7] and in assay [8] was > 100 µM in each case.
As for `CC12CCC(=O)N1c1cccnc1N2` (stereo not given), the TGI in [1], in assay [2], in assay [3], in assay [4], in assay [5] and in assay [6] was > 100 µM throughout. Moreover, the TGI in assay [7], in assay [8] and in assay [9] was > 100 µM in each case.
Consider `Cc1ccc2c(c1-c1ccccc1)C(=O)OC2`, for which the TGI in assay [1] is > 100 µM; in assay [2], > 100 µM; in [3], > 100 µM; in assay [4], > 100 µM; in [5] it was 43.4 µM; in assay [7], > 100 µM. Moreover, the TGI in [8] and in assay [9] was > 100 µM throughout.
Turning to `O=C1C=CC(=CC=C2C=CN(CCCCCCCCCCC(=O)NCCCCCCCCCCCC(=O)O)C=C2)C=C1`, the TGI in assay [1], in assay [2], in assay [4], in assay [5], in [6] and in assay [7] was > 100 µM throughout. Also, the TGI in [8] and in assay [9] was > 100 µM throughout.
`CCOC(=O)C(C)(c1c(C)[nH]c2ccccc12)c1c(C)[nH]c2ccccc12`: the TGI is 36.6 µM in [1]; 30.5 µM in [2]; 38.4 µM in assay [3]; 81.7 µM in [4]; > 100 µM in assay [5]; 39.1 µM in [6]. Also, the TGI in [7] was found to be 43 µM; in [8] it was 48.6 µM; in assay [9] it was 31.1 µM.
For `NC(CCc1ncc(C(=O)O)s1)C(=O)O` (stereo not given), the TGI in assay [1], in assay [2], in assay [4], in assay [5], in assay [6] and in assay [7] was > 100 µM in each case. Also, the TGI in [8] and in [9] was > 100 µM throughout.
As for `Cc1ccc(N2C(=O)N(c3ccc(C)cc3)C3(SC=NN3C)C2=O)cc1` (stereo not given), the TGI in assay [1], in assay [2], in assay [4], in assay [5], in assay [6] and in assay [7] was > 100 µM in each case. The TGI in [8] and in assay [9] was > 100 µM throughout.
`Cc1c(Cl)cccc1NC(=O)c1cccc([N+](=O)[O-])c1O`: the TGI in assay [1] was 45.9 µM; in [2] it was > 77 µM; in [3], 36.9 µM; in assay [4], > 100 µM; in assay [5], > 87.6 µM; in assay [6], 40.6 µM. In addition, the TGI in [7] came out at 38.7 µM; in assay [8], 66.1 µM; in [9], 15.5 µM.
Turning to `CC(C)(C)OC(=O)N1C2CCCC23O[C@@H]1c1cc2c(cc1C3=O)OCO2` (stereo not given in full), the TGI in [2] is > 100 µM; in assay [3] it was > 100 µM; in assay [4] it was > 100 µM; in [5] it was > 100 µM; in assay [6], 55.4 µM; in assay [7], > 100 µM. The TGI in assay [8] was found to be 56.8 µM; in assay [9], 26.1 µM.
With `NCCCOc1cc(Cl)ccc1NC(=O)c1cc2ccccc2cc1OCCCN`, the GI50 is 1.58 µM in assay [1]; 1.81 µM in [2]; 1.58 µM in assay [3]; 1.84 µM in assay [4]; 1.69 µM in assay [5]; 1.5 µM in assay [6]. Also, the GI50 is 1.65 µM in assay [7], 1.23 µM in [8] and 1.47 µM in [9]. For the same compound, the TGI in assay [1] is 3.08 µM; in [2] it was 3.23 µM; in assay [3], 3.19 µM; in assay [4] it was 3.59 µM; in assay [5] it was 3.58 µM; in [6], 2.95 µM. Also, the results for the TGI in assay [7], in [8] and in assay [9] were 3.59 µM, 2.5 µM and 2.81 µM, respectively.
As for `CC1CCC(C(C)(C)c2ccccc2)C(=O)C1` (stereo not given), the TGI in [1], in assay [3], in assay [4], in assay [5], in [6] and in assay [7] was > 100 µM in each case. Further, the TGI in assay [8] and in [9] was > 100 µM each time.
With `Cc1ccc2[c](c1)[Sn]([c]1ccccc1)([c]1ccccc1)[c]1cc(C)ccc1N2C`, the GI50 was 64.5 µM in assay [2]; 11.2 µM in assay [3]; 57.3 µM in assay [4]; 41.4 µM in [5]; > 100 µM in [6]; 31.8 µM in assay [7]. Moreover, the GI50 in [8] was > 100 µM; in assay [9], 33.2 µM. The TGI was > 100 µM in assay [2]; 51.9 µM in [3]; > 100 µM in assay [4]; > 100 µM in assay [5]; > 100 µM in [6]; 90.7 µM in [7]. In addition, the TGI in assay [8] and in assay [9] was > 100 µM each time.
For the compound `NCCN.O=C([O-])[O-].O=C([O-])[O-].[Co+3].[K+]`, the GI50 in [1], in assay [2], in [3], in [4], in [5] and in [6] was > 100 µM each time. Besides, the GI50 in [7] is > 100 µM; in assay [8], > 100 µM and 72.3 µM; in assay [9] it was > 100 µM. The TGI in assay [1], in [2], in assay [3], in [4], in assay [5] and in assay [6] was > 100 µM throughout. Moreover, the TGI in assay [7], in assay [8] and in [9] was > 100 µM each time.
Consider `CCCCCCCCCCCCCCCCCCC1=C(O)C(=O)C=C(OC)C1=O`, for which the TGI in assay [1] was > 100 µM; in assay [2], > 100 µM; in [3] it was 76.5 µM; in [4], > 100 µM; in [5] it was > 100 µM; in assay [6], > 100 µM. Further, the TGI in assay [7], in [8] and in assay [9] was > 100 µM throughout.
As to `COc1cc2c(cc1OC)C1Cc3cc(OC)c(OC)cc3N1CC2` (stereo not given), the TGI in assay [1] is > 100 µM; in assay [2], > 100 µM; in [3] it was > 100 µM; in assay [4] it was > 100 µM; in [5] it was 89.5 µM; in [7] it was 54.4 µM. In assay [8], the TGI was 56.2 µM.
With `COC(=O)c1c[nH]cc1CCCCc1c[nH]cc1C(=O)OC`, the TGI in assay [1], in [2], in assay [3], in assay [4], in assay [5] and in assay [6] was > 100 µM in each case. Besides, in assay [7], the TGI was > 100 µM.
Consider `CCOc1ccc(N=Cc2c3ccccc3nc3ccccc23)cc1`, for which the TGI in assay [1], in [2], in [3], in assay [4], in assay [5] and in assay [6] was > 100 µM throughout. Also, the TGI in assay [7], in assay [8] and in assay [9] was > 100 µM throughout.
Turning to `O=C1CC2CCN(C(=O)c3ccccc3)CC2CCN1` (stereo not given), the TGI in assay [1] was > 100 µM; in [2] it was > 100 µM; in assay [3], 60.2 µM; in assay [4], > 100 µM; in assay [5], > 100 µM; in [6], > 100 µM. The TGI in assay [7], in assay [8] and in [9] was > 100 µM throughout.
With `CCC[CH2][Sn]1([CH2]CCC)[O]CC(COc2c(Cl)cc(Cl)cc2Cl)[O]1` (stereo not given), the GI50 in assay [1] is 1.31 µM; in assay [2] it was 1.39 µM; in assay [3], 0.58 µM; in assay [4], 1.12 µM; in assay [5] it was 5.51 µM; in [6], 1.64 µM. For the same compound, the GI50 in [7] was 1.06 µM; in assay [8] it was 1.17 µM. Further, the TGI in assay [1] amounted to 2.65 µM; in assay [2] it was 2.82 µM; in assay [3], 1.91 µM; in [4], 2.37 µM; in assay [5], 17.3 µM; in [6], 3.43 µM. For the same compound, the results for the TGI in assay [7] and in assay [8] were 2.34 µM and 3.77 µM, respectively.
Take `CCOC(=O)C1=C(Nc2ccc(Br)cc2)OCC1=O`: the TGI in [1], in assay [2], in assay [3], in [4], in assay [5] and in assay [6] was > 100 µM throughout. The TGI in assay [7], in assay [8] and in assay [9] was > 100 µM in each case.
On to `Cc1ccc(C)c(N2C(=O)C(=O)C(c3nc4ccccc4o3)/C(=N/N)C2=O)c1` (stereo not given), for which the TGI in assay [1], in assay [2], in assay [3], in assay [4], in [5] and in assay [6] was > 100 µM each time. The TGI in assay [7], in assay [8] and in [9] was > 100 µM throughout.
Take `C[P+](C)(C)c1ccccc1`: the TGI in assay [2], in [3], in [4], in assay [5], in [6] and in assay [7] was > 100 µM in each case. Further, the TGI in assay [8] and in assay [9] was > 100 µM each time.
On to `O=C1c2ccc3c4ccccc4n(-c4ccccc4)c3c2C(=O)N1c1ccc(Cl)cc1`, for which the TGI in assay [1], in assay [3], in [4], in [5], in assay [6] and in assay [7] was > 100 µM in each case. The TGI in assay [8] and in [9] was > 100 µM each time.

Source of the values: PubChem BioAssay (NCI).
